Experimental data taken from PMC10684765, “Inhibition of rat locus coeruleus neurons by prostaglandin E2 EP3 receptors: pharmacological characterization ex vivo” (Frontiers in Pharmacology, 2023).
Where two headings read alike, the source gives them in different places.

Legend:
EP3 receptor [1] = target: T1, EP3 receptor (Rattus norvegicus, UniProt P34980); assay: inhibition of LC neuron firing, single-unit extracellular recording; shifted by EP3 antagonist L-798, […]
T1 construct: gene Ptger3; native receptor in locus coeruleus neurons, brain slices
T1 sequence (P34980 1-365): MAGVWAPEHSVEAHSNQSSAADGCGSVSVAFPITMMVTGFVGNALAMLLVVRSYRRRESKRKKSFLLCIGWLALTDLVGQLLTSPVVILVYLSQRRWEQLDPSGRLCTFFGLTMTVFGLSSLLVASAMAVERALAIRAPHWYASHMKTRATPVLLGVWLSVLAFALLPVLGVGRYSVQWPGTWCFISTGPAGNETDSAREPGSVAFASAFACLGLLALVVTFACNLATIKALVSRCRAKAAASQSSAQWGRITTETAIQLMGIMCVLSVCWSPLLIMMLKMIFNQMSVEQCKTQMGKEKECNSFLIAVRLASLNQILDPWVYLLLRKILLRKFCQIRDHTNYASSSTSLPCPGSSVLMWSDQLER

EP3 receptor [2] = target: T1, EP3 receptor; assay: antagonism of sulprostone concentration-effect curves, single-unit recording in rat LC slices (Schild-derived fit)

| EC50 (EP3 receptor [1]; read-out: (EC50)) [nM] | SMILES | other results |
| --- | --- | --- |
| 50.7 | CCCCC(C)(O)C/C=C/[C@H]1[C@H](O)CC(=O)[C@@H]1CCCCCCC(=O)O (relative stereo) [misoprostol free acid] |  |
|  | COc1ccc(Br)cc1S(=O)(=O)NC(=O)/C=C/c1ccccc1Cc1ccc2ccccc2c1 [L-798,106] | Kb (EP3 receptor [2]): 5.77 ± 0.10 pKB |
|  | CCCCC[C@H](O)/C=C/[C@H]1[C@H](O)CC(=O)[C@@H]1C/C=C\CCCC(=O)O [prostaglandin E2] | EC50 (EP3 receptor [1]): 110 nM |
| 14.8 | CS(=O)(=O)NC(=O)CCC/C=C\C[C@H]1C(=O)C[C@@H](O)[C@@H]1/C=C/[C@@H](O)COc1ccccc1 [sulprostone] |  |
